In a melting point compilation (Tetko et al.; mined from patent text by program, amines drawn as free bases though some values may be those of a salt) one finds melting point data, which are given here for 66 molecules.

As a reminder, the melting point is the temperature, or range, at which the solid turns liquid.

The molecule `CCOC(=O)c1cc2c(F)cc(F)cc2[nH]1` displayed a melting point of 153 to 154 °C.
Next, `O=C(C=Cc1ccc(F)c(F)c1)OCCc1ccccc1`: 53 to 57 °C; `CCCCOC(=O)c1cc([N+](=O)[O-])ccc1N`: 91 to 93 °C; `CC(=O)n1nc(C)c(Oc2cc(Cl)cc(Cl)c2)c1C`: under 60 °C.
Under `COCCN(CCOC)c1ccc(P(=O)(C(=O)c2c(C)cc(C)cc2C)C(=O)c2c(C)cc(C)cc2C)cc1` stands 103 to 106 °C.
Next, `CC(C)(C)OC(=O)N1CCN(Cc2ccc([N+](=O)[O-])cc2)CC1`: 99 to 100 °C; `O=C(C1CCCC1)N1C=C2c3ccccc3C3CC2(C1)c1ccccc13` (stereo unspecified): 185 to 186 °C.
Regarding `Cc1cc(-c2ccc(Cl)cc2)nc2c(-c3nc(-c4cccc(S(N)(=O)=O)c4)no3)cnn12`, the melting point came to 275 °C.
Regarding `COc1ccc(N)c(S)c1`, the melting point was found to be 104 °C.
Under `COc1cc(N)c(Cl)cc1C(=O)NCC1CCN(CCCCCCNC(=O)c2ccccc2)CC1` stands 159 to 162 °C.
Under `Cc1ccc(-c2nc3ccc(N(C)C)cn3c2CNC(=O)CC(C)C)cc1` stands 173 to 175 °C; under `O=[N+]([O-])c1ccc(Cl)c(C(=S)Nc2ccc(Oc3ncc(C(F)(F)F)cc3Cl)cc2)c1`, 186 to 187 °C; under `CC(C)NC1=Nc2ccc(Cl)cc2S(=O)(=O)N1C`, 139 to 141 °C.
Consider `NCCNS(=O)(=O)c1cc(NC(=O)c2cnn3c(C(F)(F)F)cc(-c4ccc(C(F)(F)F)cc4)nc23)c(Cl)s1`, for which the melting point is 195 °C.
Next, `COC(=O)c1ccc(C(F)F)nc1C`: 135 to 136 °C; `COC(=O)c1c[nH]c(-c2ccc(OC)cc2)n1`: 188 to 190 °C; `CC(C)(C)OC(=O)C(C)(C)ON=C(C(=O)O)c1cccs1`: 201 to 202 °C.
Turning to `O=C1CC(Cc2ccc(Cl)cc2)CN1` (stereo unspecified), the melting point was 95 to 98 °C.
The molecule `CN(c1c(Cl)ccc2cc(C(N)=S)[nH]c12)S(=O)(=O)c1cccs1` yielded a melting point of 200 to 201 °C.
Molecule `C[C@@H](n1cnc2cc(C#N)ccc2c1=O)[C@](O)(Cn1cncn1)c1ccc(F)cc1F` returned a melting point of 168 to 169 °C.
Next, `O=C1c2ccccc2C(=O)N1c1n[nH]c2ccc(O)cc12`: over 270 °C; `CCOC(=O)c1ccc(CCN2CCN(S(=O)(=O)c3ccccc3)CC2)cc1`: 156 to 157 °C.
For `Oc1ccccc1-c1nnn[nH]1`, the melting point was determined as 228 °C.
Next, `Cc1c2n(c3ccccc13)C(=O)C(Cc1cn(C)cn1)CC2` (stereo unspecified): 99 to 100 °C; `COC(=O)CCc1ccc(NC(=O)N(NC(=O)c2ccccc2)c2ccc(C#N)cc2)cc1`: 76 to 81 °C; `CCCCSc1nc(N)c(C#N)s1`: 115 to 117 °C.
Next, `Cn1cncc1C(O)c1ccc2nc(Cl)nc(-c3cccc(Cl)c3)c2c1` (stereo unspecified): 140 °C.
For the molecule `O=C(N[C@H]1CC[C@H](CCN2CCN(c3nccc4c3CCO4)CC2)CC1)C1CCC1`, the melting point turned out to be 202 °C.
Under `CC1CCCN1C1CCN(c2ccc(CC(=O)NC3CCOCC3)cc2)C1` (stereo unspecified) stands 155 to 157 °C; under `Cc1ccc(F)cc1C(=O)Nc1ccc(C(=O)N2Cc3ccccc3Oc3ncccc32)cn1`, 187 to 189 °C.
Under `O=C(CCCCCC1(C(=O)O)CC1)CCCCCC1(C(=O)O)CC1` stands 122 to 123 °C; under `CNC(=O)c1ccccc1Nc1nc(Nc2ccc3c(c2)CCC(=O)CC3)ncc1Cl`, 262 to 269 °C.
Under `CCCCCCS(=O)(=O)c1nnnn1CC(=O)OCC` stands 40 to 42 °C.
In turn, `COC(=O)Cn1nnnc1-c1ccc(Cl)cc1` showed a melting point of 156 to 158 °C.
Next, `COCCCOc1ccc(CCC(=O)O)c(Oc2ncc(C(F)(F)F)cc2Cl)c1`: 99.1 to 99.2 °C.
For the molecule `O=C(O)c1ccc2c(c1)S(=O)(=O)c1ccccc1C2=O`, the melting point is 285 to 287 °C.
Next, `COCC1CC(Cn2ccnc2)(c2ccc(Cl)cc2)N(C)O1` (stereo unspecified): 123 to 126 °C; `O=C(O)Cc1ccc(NC(=O)c2ccccc2)cc1`: 207 to 208 °C; `CC(C)c1ccc(-c2ccnc(-c3cccc(C(=O)O)c3)c2)cc1`: 233 to 234 °C.
Take `Cc1cc(CSCCNC(=C[N+](=O)[O-])NCCc2cccc(O)c2)sc1CN(C)C`: the melting point was 114 to 115 °C.
Next, `c1cnc(NCCc2c[nH]cn2)cn1`: 200 to 202 °C; `COC(=O)C1CCC(OC2=C3N=c4ccccc4=C3C(Cc3ccc(F)cc3)C=C2)O1` (stereo unspecified): 85 to 86 °C; `Clc1ccccc1-c1nn2cc(-c3ccccc3)nc2s1`: 126 °C.
Under `ON=C1CCOc2ccccc21` stands 114 to 117 °C; under `CC(C(O)c1ccc2c(c1)CCCS2)N1CCC(NC(=O)c2ccccc2)CC1` (stereo unspecified), 200 to 201 °C; under `CCC(C)c1nn(-c2ccc(C(F)(F)F)cn2)cc1C=O` (stereo unspecified), 82 to 83 °C.
Next, `CCOC(=O)CCn1c(-c2ccccc2)c(-c2ccccc2)n(-c2ccccc2)c1=O`: 111 to 112 °C; `CC[C@H](CC(=O)NC(=O)OC)Nc1ccc(C(F)(F)F)cc1`: 142 °C.
For `O=S1(=O)N=C(OCc2snc(Cl)c2Cl)c2ccccc21`, the melting point was in the range of 165 to 167 °C.
Take `O=c1oc(OCc2ccccc2)nc2ccccc12`: the melting point lay within 152 to 154 °C.
`COC(=O)NC(=O)Nc1nc2c(C)cccc2s1` yielded a melting point of 272 to 280 °C.
The molecule `CSC(=NCCSCc1csc(NC(=N)N)n1)NC#N` gave a melting point of 127 to 134 °C.
Molecule `Cn1cc(-c2ccc(C(=O)O)cn2)cn1` registered a melting point of 262 to 264 °C.
Next, `CC(=O)NC[C@H]1CN(c2ccc(C=C(Br)Br)c(F)c2)C(=O)O1`: 177 to 179 °C.
Under `Cc1ccc(-c2cc(Cl)c3ccccc3n2)cc1Cl` stands 115 to 116 °C.
Under `Clc1ccc(OCc2ccccc2)c(C=Cc2ccccn2)c1` stands 105 to 106 °C.
Consider `COC(=O)c1ccc(Cn2ccc(OCc3ccc(F)cc3F)c(Br)c2=O)cc1`, for which the melting point lay within 136 to 139 °C.
For `CCc1cccc2c3c([nH]c12)C(CC)(CCF)OCC3` (stereo unspecified), the melting point was in the range of 118 to 119 °C.
Next, `CCOC(=O)c1cn(C2CC2)c2c(F)c(F)c(F)cc2c1=O`: 167 to 168 °C; `O=C(Cl)c1cc(C(=O)Cl)c(C#Cc2ccccc2)cc1C#Cc1ccccc1`: 157 to 160 °C.
Under `O=C(c1ccc(F)cc1)c1ccc(Cl)cn1` stands 98 to 100 °C; under `CC(=O)Nc1ccc(C(C)(C)C)cc1OC(C)=O`, 109 to 110 °C.
Next, `CC(C)OCCNc1ccc(C(=O)N2CCN(CCc3ccc(Cl)cc3)CC2)cc1`: 130 to 132 °C; `CCc1cc(C)cc(C)c1NC(=S)NC(C)(C)CC`: 105 to 107 °C.
Molecule `COc1cc2c(cc1OC)CN(CCCSc1ccc(NC(=O)c3cccc4c(=O)c5cccc(OC)c5[nH]c34)cc1)CC2` showed a melting point of 199 °C.
In turn, `CCc1nc2c(N)nc3cc(CCCNS(C)(=O)=O)ccc3c2n1CC1CCOCC1` yielded a melting point of 168 to 170 °C.
